The record followed here is patent US9511070B2, “Heterocyclyl carboxamides for treating viral diseases” (NOVADRUG, LLC, priority 2012, dated 2016).

Entries after “also recorded” stand apart in the source; their conditions may differ.

Experiment [1] has as its system Bovine Viral Diarrhea Virus strain NADL. The experiment can be described thus: Anti-BVDV efficacy, cytopathic (CPE) assay in Bovine Turbinate cells (MTT). Type of experiment: cell-based. Conditions: cell survival at 10 μM compared to untreated control; TABLE 4(a). Here is the method: Assay for Anti-BVDV efficacy. Bovine Turbinate (BT) cells maintained as monolayers in disposable cell culture labware are used for the antiviral efficacy test. Prior to testing, host cell cultures are seeded onto the 96-well cell culture plates and used approximately 48 hours after seeding. […] The growth medium (GM) and maintenance medium (MM) include Dulbecco's Modified Eagle Media (DMEM) with L-glutamine (ATCC #30-2002), 10% Horse serum and penicillin/streptomycin (10,000 units of penicillin and 10,000 μg of streptomycin per mL, Life Technologies #15140-122 or similar) for a final concentration of 100 units penicillin and 100 μg streptomycin in the medium. Bovine Viral Diarrhea Virus strain NADL from BSLI high-titer virus stock is used. Prior to use, aliquots of the stock virus are removed and thawed from a −70° C. freezer. The BVDV is diluted in a maintenance medium (MM) to obtain 0.1 Multiplicity of Infection (MOI). Cytopathic (CPE) assay. CPE refers to degenerative changes in BT tissue culture induced by BVDV as a consequence of its multiplication. BT cell cultures are washed with PBS, and 100 μL aliquots of MM are added to the cells and incubated in a CO2 incubator for 2 hours. After incubation, the MM is removed; the cells washed again with PBS and overlaid with 100 μL of the different concentrations of test compounds. The plates are incubated in a CO2 incubator for 48 to 72 hours. […] This assay is a colorimetric assay that measures the activity of enzymes that reduce MTT to the purple color formazan dye. CPE is confirmed using an Inverted Compound Microscope.
For orientation: Cytopathic effects are the visible damage that an infection or toxin causes in cultured cells.

The test system of experiment [2] is JFH-1 HCV. Conditions: viral titer at 5 μM or 15 μM compared to untreated control. From the text:
In vitro assay for anti-HCV efficacy. HCV studies typically involve infected patients and chimpanzees. However, recently, a robust HCV infection system was developed with cells derived from the Huh-7 human hepatoma cell line. It is based on the unique JFH-1 HCV consensus cDNA derived from an HCV patient. Using reverse genetics, the infectious virus can be rescued from this HCV clone. The recovered viable JFH virus can be passaged serially in Huh-7 cells. For this reason, this system is amenable for evaluating the activity of test compound for their anti-HCV efficacy.
(§1) Briefly, 6×10^3 Huh7-1 cells are incubated overnight in each well of collagen-coated BioCoat 96-well plates (BD Biosciences, Bedford, Mass.) in 0.2 ml 10% medium composed of Dulbecco's modified Eagle's medium supplemented with 10% fetal bovine serum. Subsequently, at 2 day intervals, the cultures are replenished with fresh 0.2 ml 10% medium. After the cultures become confluent, they continue to be replenished at 2 day intervals with fresh 0.2 ml 10% medium that also includes 1% dimethyl sulfoxide (DMSO). After 20 days of these replenishments, the Huh7-1 cultures are incubated with fresh 1% medium (same as 10% medium except that the serum level is 1%) containing HCV at a multiplicity of infection (MOI) of 0.05 focus forming units (ffu)/cell. The HCV (JFH-lwt Huh7) stock titer is 1.5×10^5 ffu/mL. The next day (day 1 post-infection) and 2 days later (day 3 post-infection) the media are replenished with fresh 1% medium containing the test compounds dissolved in DMSO. On the 5th day of treatment with the compounds, cell lysates are collected for RNA isolation and Real Time-quantitative Reverse Transcription Polymerase Chain Reaction (RT-qPCR) and culture media are collected for cytotoxicity analysis.
(§2) Total RNA is isolated from cells by the guanidine thiocyanate method using standard protocols. One μg RNA is used for cDNA synthesis using TaqMan reverse transcription reagents (Applied Biosystems, Foster City, Calif.) followed by real-time PCR using an Applied Biosystems 7300 real-time thermocycler. Thermal cycling consists of initial denaturation of 10 min at 95° C. followed by 40 cycles of denaturation (15 s at 95° C.) and annealing/extension (1 m at 60° C.). HCV and human glyceraldehyde-3-phosphate dehydrogenase (GAPDH) RNA levels are determined relative to a standard curve of serial dilutions of plasmid containing JFH-1 HCV or GAPDH cDNA. The PCR primers used to detect GAPDH and HCV are: GAPDH (NMX002046) 5′-[…]-3′(SEQ ID NO: 16) (sense) and 5′-[…]-3′(SEQ ID NO: 17) (anti-sense) JFH-1 HCV (AB047639) 5′-[…]-3′(SEQ ID NO: 18) (sense) and 5′-[…]-3′(SEQ ID NO: 19) (anti-sense).

In experiment [3] the test system is JFH-1 HCV. The experiment can be described thus: Co-therapy treatment for HCV infection (intracellular HCV RNA, with and without IFN-β-1b). Type of experiment: cell-based, Hepatitis C virus. Conditions: for Fold Inhibition: vs untreated control. As for the experimental part: as §1, §2
Co-therapy Treatment for HCV Infection. […] The compounds described herein are tested to determine whether they increase the efficacy of either RBV, IFN-β-1b, or a combination thereof. Using the protocol described for determining chemical-evoked reduction in intracellular HCV RNA, the cells are treated with and without 10 U/mL IFN-β-1b in combination with 2.5 or 10 μM of the compounds described herein and for comparison with 10 μM MA and 80 μM RBV.

For the compound `Cc1c[nH]c2ncnc(N3CCC(C(=O)Nc4cccc(-c5cc6ccccc6[nH]5)c4)CC3)c12` [Example 100], the “BVDV Antiviral Activity” value in experiment [1] is recorded as “+++ (“+++” corresponds to ≧75 cell survival at 10 μM)”.
On the same count and under the same terms, with `Cc1c[nH]c2ncnc(N3CCC(C(=O)Nc4cccc(Br)c4)CC3)c12` [Example 103] the entry was “+ (“+” corresponds to ≦50 cell survival at 10 μM, and improved survival over untreated control)”.
Take `CC(C)n1cc(CN2CCC(C(=O)Nc3cccc(-c4cc5ccccc5[nH]4)c3)CC2)cn1` [Example 38]: the “HCV Antiviral Activity” value in experiment [2] is on record as “+ (“+” corresponds to ≦60% viral titer at 15 μM)”.
On the same count and under the same terms, to `CCc1nc(CN2CCC(C(=O)Nc3cccc(-c4cccc(F)c4)c3)CC2)c(C)[nH]1` [Example 68] belongs “+ (“+” corresponds to ≦60% viral titer at 15 μM)”.
For `CCCn1ncc(CN2CCC(C(=O)Nc3ccc(Oc4ccccc4F)cc3)CC2)c1C` [Example 73], in experiment [2], the “HCV Antiviral Activity” value was “+ (“+” corresponds to ≦60% viral titer at 15 μM)”.
Take `NC(=O)c1ncn([C@@H]2O[C@H](CO)[C@@H](O)[C@H]2O)n1` [RBV, ribavirin, reference compound]: in experiment [3] (80 μM +IFN-β-1b (10 U/mL)), the “Average HCV copies/μg RNA” value was 1.8 × 10^5 copies/μg RNA and the “Fold Inhibition” value came to 52 fold. Moreover, in experiment [3] (80 μM, alone), the “Average HCV copies/μg RNA” value is reported as 5.0 × 10^6 copies/μg RNA and the “Fold Inhibition” value is reported as 2 fold.
On to `COc1cccc(-c2ccccc2NC(=O)C2CCN(CC(C)(C)C)CC2)c1` [Example 39], for which the “HCV Antiviral Activity” value in experiment [2] is listed as “+ (“+” corresponds to ≦60% viral titer at 15 μM)”.
Take `O=C(Nc1cccc(-c2cccc(Cl)c2)c1)C1CCN(Cc2ccc(O)cc2)CC1` [Example 31]: the “HCV Antiviral Activity” value in experiment [2] is given as “+ (“+” corresponds to ≦60% viral titer at 15 μM)”.
The same measure, in the same setting: with `O=C(Nc1cccc(-c2ccco2)c1)C1CCN(C(=O)c2n[nH]c3c2CCC3)CC1` [Example 54] the entry was “− (“−” corresponds to >60% viral titer at 15 μM (highest concentration tested))”.
For the compound `O=C(Nc1cccc(-c2cccc(F)c2)c1)C1CCN(Cc2cccc(O)c2)CC1` [Example 29], in experiment [2], the “HCV Antiviral Activity” value is “+ (“+” corresponds to ≦60% viral titer at 15 μM)”.
The same measure, in the same setting: to `O=C(Nc1cccc(-c2cccc(Cl)c2)c1)C1CCN(Cc2ccccn2)CC1` [Example 98] belongs “+ (“+” corresponds to ≦60% viral titer at 15 μM)”; to `CCOc1ccc(CN2CCC(C(=O)Nc3ccccc3-c3cccc(OC)c3)CC2)cc1` [Example 48], “− (“−” corresponds to >60% viral titer at 15 μM (highest concentration tested))”; to `O=C(Nc1cccc(-c2ccn[nH]2)c1)C1CCN(Cc2cccc3ccccc23)CC1` [Example 43], “− (“−” corresponds to >60% viral titer at 15 μM (highest concentration tested))”.
For `Cc1c[nH]c2ncnc(N3CCC(C(=O)Nc4cccc(-c5cccc(F)c5)c4)CC3)c12` [Example 102], in experiment [1], the “BVDV Antiviral Activity” value was “+++ (“+++” corresponds to ≧75 cell survival at 10 μM)”.
As for `COc1ccc(O)c(CN2CCC(C(=O)Nc3ccc(Oc4ccccc4F)cc3)CC2)c1` [Example 81], in experiment [2], the “HCV Antiviral Activity” value is “++ (“++” corresponds to ≦60% viral titer at 5 μM)”.
Same read-out and setting: to `COc1cc(CN2CCC(C(=O)Nc3cccc(-c4cccc(Cl)c4)c3)CC2)ccc1O` [Example 42] belongs “+ (“+” corresponds to ≦60% viral titer at 15 μM)”; to `Cc1nnc(-c2cccc(NC(=O)C3CCN(C(=O)c4ccco4)CC3)c2)s1` [Example 41], “+ (“+” corresponds to ≦60% viral titer at 15 μM)”.
For the compound `COc1cccc(-c2ccccc2NC(=O)C2CCN(CCC(C)c3ccccc3)CC2)c1` (stereo not drawn) [Example 36], in experiment [2], the “HCV Antiviral Activity” value is listed as “+ (“+” corresponds to ≦60% viral titer at 15 μM)”.
Same read-out and setting: with `O=C(Nc1cccc(-c2cscn2)c1)C1CCN(Cc2cccc(-c3ccco3)c2)CC1` [Example 35] the entry was “+ (“+” corresponds to ≦60% viral titer at 15 μM)”.
Turning to `Cc1c[nH]c2ncnc(N3CCC(C(=O)Nc4ccc(Oc5ccccc5F)cc4)CC3)c12` [Example 101], the “BVDV Antiviral Activity” value in experiment [1] was “++ (“++” corresponds to >50 but <75 cell survival at 10 μM)”.
As for `COc1cccc(CN2CCC(C(=O)Nc3cccc(-c4cccc(Cl)c4)c3)CC2)c1O` [Example 63], in experiment [2], the “HCV Antiviral Activity” value is given as “++ (“++” corresponds to ≦60% viral titer at 5 μM)”.
Same read-out and setting: with `COc1cccc(-c2ccccc2NC(=O)C2CCN(Cc3ccc(OC)c(C)c3)CC2)c1` [Example 32] the entry was “+ (“+” corresponds to ≦60% viral titer at 15 μM)”.
For `O=C(Nc1cccc(-c2cccc(F)c2)c1)C1CCN(Cc2cccc3cccnc23)CC1` [Example 16], the “HCV Antiviral Activity” value in experiment [2] is recorded as “++ (“++” corresponds to ≦60% viral titer at 5 μM)”. Also, the “Average HCV copies/μg RNA” value was 1.1 × 10^5 copies/μg RNA in experiment [3] (2.5 μM +IFN-β-1b (10 U/mL)); 3.3 × 10^6 copies/μg RNA in experiment [3] (2.5 μM, alone); 9.6 × 10^4 copies/μg RNA in experiment [3] (10 μM +IFN-β-1b (10 U/mL)); 2.0 × 10^6 copies/μg RNA in experiment [3] (10 μM, alone). Besides, the “Fold Inhibition” value turned out to be 85 fold in experiment [3] (2.5 μM +IFN-β-1b (10 U/mL)); 3 fold in experiment [3] (2.5 μM, alone); 97 fold in experiment [3] (10 μM +IFN-β-1b (10 U/mL)); 5 fold in experiment [3] (10 μM, alone). In addition, the “reduction of intracellular HCV RNA levels by the combination with IFN-β-1b (in words)” value in experiment [3] (combination with IFN-β-1b) is given as “more effective than that achieved with RBV; also recorded: reduces intracellular HCV RNA levels more effectively than either agent alone”.
Turning to `Cc1ccc(CN2CCC(C(=O)Nc3ccc(Oc4ccccc4F)cc3)CC2)o1` [Example 94], the “HCV Antiviral Activity” value in experiment [2] was “+ (“+” corresponds to ≦60% viral titer at 15 μM)”.
On the same count and under the same terms, to `COc1cccc(-c2ccccc2NC(=O)C2CCN(Cc3cccc(OC)c3O)CC2)c1` [Example 62] belongs “++ (“++” corresponds to ≦60% viral titer at 5 μM)”; to `COc1cc(CN2CCC(C(=O)Nc3ccc(-c4cccc(C)c4)cc3)CC2)ccc1O` [Example 17], “+ (“+” corresponds to ≦60% viral titer at 15 μM)”.
As to `COc1ccc(CN2CCC(C(=O)Nc3ccc(Oc4ccccc4F)cc3)CC2)c(O)c1` [Example 21], the “HCV Antiviral Activity” value in experiment [2] was “+++ (“+++” corresponds to ≦30% viral titer at 5 μM)”.
On the same count and under the same terms, with `C=CCn1cc(CN2CCC(C(=O)Nc3cccc(-c4cccc(F)c4)c3)CC2)c(C)n1` [Example 93] the entry was “++ (“++” corresponds to ≦60% viral titer at 5 μM)”; with `CCCCc1nc(CN2CCC(C(=O)Nc3cccc(-c4cccc(F)c4)c3)CC2)c[nH]1` [Example 27], “++ (“++” corresponds to ≦60% viral titer at 5 μM)”; with `COc1ccccc1/C=C/CN1CCC(C(=O)Nc2ccc(-n3nc(C)cc3C)cc2)CC1` [Example 66], “+ (“+” corresponds to ≦60% viral titer at 15 μM)”.
